In PubChem BioAssay (NCI):
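Exposure lasted 48 hours, with cells grown in 96-well plates and compounds tested at five concentrations. TGI is the concentration that stops growth completely.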

Experiments:
Assay in all cases: NCI tumour cell line growth inhibition, 48 h
KM20L2 colon = system: KM20L2 colon
DLD-1 colon = system: DLD-1 colon
DMS 273 small cell lung = system: DMS 273 small cell lung
P388 leukemia = system: P388 leukemia
P388/ADR leukemia = system: P388/ADR leukemia
SN12K1 renal = system: SN12K1 renal
RXF-631 renal = system: RXF-631 renal

SMILES: CC(=O)OCCOCNC(=S)N/N=C(\C)c1cccs1
- TGI (KM20L2 colon): > 100 µM
- TGI (DLD-1 colon): > 100 µM
- TGI (DMS 273 small cell lung): > 100 µM

SMILES: COc1ccc(CCCN2c3ccccc3Sc3ccccc32)cc1
- TGI (KM20L2 colon): > 100 µM
- TGI (DLD-1 colon): > 100 µM
- TGI (DMS 273 small cell lung): > 100 µM

SMILES: c1ccc2c(c1)Sc1ccccc1N2C1CN2CCC1CC2 (stereo not drawn)
- TGI (KM20L2 colon): 30.2 µM
- TGI (DLD-1 colon): 29.6 µM
- TGI (DMS 273 small cell lung): 30.7 µM

SMILES: COc1ccc(C2=C(Cl)c3cc(OC)c(OC)cc3C2)cc1OC
- TGI (KM20L2 colon): > 100 µM
- TGI (DLD-1 colon): > 100 µM
- TGI (DMS 273 small cell lung): > 100 µM

SMILES: O=NN1C(c2ccccc2)CCCC1c1ccccc1 (stereo not drawn)
- TGI (KM20L2 colon): > 100 µM
- TGI (P388 leukemia): 81.8 µM
- TGI (P388/ADR leukemia): > 100 µM
- TGI (DLD-1 colon): > 100 µM
- TGI (DMS 273 small cell lung): > 100 µM
- TGI (SN12K1 renal): > 100 µM

SMILES: CC1=NN(C(=O)Cc2ccccc2)C(=O)/C1=C\c1ccccc1O
- TGI (KM20L2 colon): > 100 µM
- TGI (DLD-1 colon): > 100 µM

SMILES: Cn1nc2ccc3nccc(NCCNCCO)c3c2n1
- TGI (KM20L2 colon): > 100 µM
- TGI (DLD-1 colon): > 100 µM

SMILES: O=C(Nc1ccc(Sc2ccc(N=Nc3c(O)c(S(=O)(=O)O)cc4cc(S(=O)(=O)O)ccc34)cc2)cc1)c1ccc(N=Nc2c(O)c(S(=O)(=O)O)cc3cc(S(=O)(=O)O)ccc23)cc1
- TGI (KM20L2 colon): > 100 µM
- TGI (DLD-1 colon): > 100 µM
- TGI (DMS 273 small cell lung): > 100 µM

SMILES: O=C(NN1C(=O)C(Cl)C1c1ccccc1Cl)c1ccccc1O (stereo not drawn)
- TGI (DLD-1 colon): > 100 µM

SMILES: O=C(c1ccccc1O)c1cc(-c2ncc3c(=O)c4ccccc4oc3n2)c(-c2ccccc2O)[nH]c1=O
- TGI (P388 leukemia): 47.8 µM
- TGI (P388/ADR leukemia): 61 µM
- TGI (DLD-1 colon): > 61.5 µM
- TGI (DMS 273 small cell lung): 88.3 µM
- TGI (SN12K1 renal): 35.1 µM

SMILES: COc1cc2c(c(OC)c1OC)-c1ccc(SC)c(=O)cc1[C@@H](NCc1cccc([N+](=O)[O-])c1)CC2
- TGI (KM20L2 colon): < 0.01 µM
- TGI (DLD-1 colon): > 100 µM

SMILES: C[N+](C)(C)CC(CC(=O)[O-])C1CC1 (stereo not drawn)
- TGI (KM20L2 colon): > 100 µM
- TGI (DMS 273 small cell lung): > 100 µM
- TGI (RXF-631 renal): > 100 µM

SMILES: Cc1ccc(NC(=O)/C(=N/NC(=O)C[N+](C)(C)C)c2nc3ccccc3[nH]c2=O)cc1
- TGI (KM20L2 colon): > 100 µM
- TGI (DLD-1 colon): > 100 µM
- TGI (DMS 273 small cell lung): > 100 µM
- TGI (RXF-631 renal): > 100 µM

SMILES: Cn1cnc(SC2=C3C(=O)C=C4S[C@H]5C[C@]42c2c(c(O)c4c6c2=[N+]3CCC=6C=N4)N5)c1CC(N)C(=O)O (stereo partly drawn)
- TGI (KM20L2 colon): 16.6 µM
- TGI (DLD-1 colon): 31.4 µM
- TGI (DMS 273 small cell lung): 26 µM
